Experimental data published in ChEMBL document CHEMBL1131956, “Nucleomimetic strategy for the inhibition of HIV-1 nucleocapsid protein NCp7 activities” (1999).

Key:
[1] = molecular target: Human immunodeficiency virus type 1 reverse transcriptase (Human immunodeficiency virus 1) (UniProt Q72547); experiment: Reverse transcriptase activity using an HIV-1 infected cell line at 10 micro M concentration
[2] = system: Human immunodeficiency virus 1; experiment: Affinity for HIV-1 Nucleocapsid Protein (12-53)NCp7 was determined; type: functional

Row | SMILES | inhibition [1] [%] | Affinity [2] [M⁻¹]
1 | Cc1cn(C2CC(CC(=O)NC3OC(n4cnc5c(O)nc(N)nc54)CC3O)C(CO)O2)c(=O)[nH]c1=O (configuration not stated) | 20 | –
2 | Cc1cn(C2CC(O)C(NC(=O)CC3CC(n4cnc5c(O)nc(N)nc54)OC3CO)O2)c(=O)[nH]c1=O (configuration not stated) | – | 9
